In patent US6737383B1, “Herbicidal oxadiazolidines” (priority 1999, dated 2004):

Tests used:
[1] = tested on: sugar beet; assay: Test B pre/postemergence sugar beet; type: in vivo, Beta vulgaris
Outline: (§1)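 Response is a visual 0-to-10 score relative to untreated plants, where 0 means no effect and 10 means complete control, taken twelve to sixteen days after application. Treatments went onto soil at planting and onto foliage of 1- to 4-leaf plants, using a surfactant-containing non-phytotoxic solvent.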

[2] = tested on: wheat; assay: Test B pre/postemergence wheat; type: in vivo, Triticum aestivum
Outline: as §1

[3] = tested on: bamyardgrass; assay: Test B flood test barnyardgrass; type: in vivo, Echinochloa crus-galli
Outline: (§2)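 Plants were grown to the 2-leaf stage before treatment with test chemical, then held in a greenhouse for twelve to sixteen days. Injury was visually rated against untreated controls on a 0–10 scale, where 0 is no effect and 10 is complete control.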

[4] = tested on: crabgrass; assay: Test B pre/postemergence crabgrass; type: in vivo, Digitaria sanguinalis
Outline: as §1

[5] = tested on: rice; assay: Test B flood test rice; type: in vivo, Oryza sativa
Outline: as §2

[6] = tested on: bedstraw; assay: Test B pre/postemergence bedstraw; type: in vivo, Galium aparine
Outline: as §1

[7] = tested on: cocklebur; assay: Test B pre/postemergence cocklebur; type: in vivo, Xanthium strumarium
Outline: as §1

[8] = tested on: purple nutsedge; assay: Test B pre/postemergence purple nutsedge; type: in vivo, Cyperus rotundus
Outline: as §1

[9] = tested on: velvetleaf; assay: Test B pre/postemergence velvetleaf; type: in vivo, Abutilon theophrasti
Outline: as §1

[10] = tested on: morningglory; assay: Test B pre/postemergence morningglory; type: in vivo, Ipomoea hederacea
Outline: as §1

[11] = tested on: wild oat; assay: Test B pre/postemergence wild oat; type: in vivo, Avena fatua
Outline: as §1

[12] = tested on: surinam grass; assay: Test B pre/postemergence surinam grass; type: in vivo, Brachiaria decumbens
Outline: as §1

[13] = tested on: pigweed; assay: Test B pre/postemergence pigweed; type: in vivo, Amaranthus retroflexus
Outline: as §1

[14] = tested on: giant foxtail; assay: Test B pre/postemergence giant foxtail; type: in vivo, Setaria faberii
Outline: as §1

[15] = tested on: duck salad; assay: Test B flood test duck salad; type: in vivo, Heteranthera limosa
Outline: as §2

[16] = tested on: blackgrass; assay: Test B pre/postemergence blackgrass; type: in vivo, Alopecurus myosuroides
Outline: as §1

[17] = Postemergence, Rate 62 g/ha, scale 0 to 10, 0 is no effect, 10 is complete control
[18] = Postemergence, Rate 250 g/ha, scale 0 to 10, 0 no effect, 10 complete control
[19] = Preemergence, Rate 62 g/ha, scale 0 to 10, 0 is no effect, 10 is complete control
[20] = Preemergence, Rate 125 g/ha, scale 0 to 10 (0 no effect, 10 complete control)
[21] = Preemergence, Rate 250 g/ha, scale of 0 to 10 where 0 is no effect and 10 is complete control
[22] = Preemergence, Rate 500 g/ha, scale 0 (no effect) to 10 (complete control)
[23] = Rate 125 g/ha, Postemergence, scale 0 to 10, 0 no effect, 10 complete control
[24] = Rate 31 g/ha, Postemergence section (flood test species), scale 0 to 10
[25] = Rate 125 g/ha, Postemergence section (flood test species), scale 0 to 10, 0 no effect, 10 complete control
[26] = flood test, listed under Postemergence, Rate 250 g/ha, scale 0 to 10, 0 no effect, 10 complete control
[27] = Rate 500 g/ha, Postemergence, 0 to 10 scale (0 no effect, 10 complete control)

Compound: CC(C)N(C(=O)n1oc(=O)n(-c2ccccc2OC(F)(F)F)c1=O)c1ccc(F)cc1 [Compound 14]
- Sugarbeets plant response rating [1, 17]: 0
- Sugarbeets plant response rating [1, 18]: 0
- Plant response rating, Sugarbeets [1, 19]: 0
- Plant response rating, Sugarbeets [1, 20]: 0
- Plant response rating, Sugarbeets [1, 21]: 0
- Sugarbeets plant response rating [1, 22]: 0
- Sugarbeets plant response rating [1, 23]: 0
- Wheat plant response rating [2, 17]: 0
- Wheat plant response rating [2, 18]: 0
- Plant response rating, Wheat [2, 19]: 0
- Plant response rating, Wheat [2, 20]: 0
- Plant response rating, Wheat [2, 21]: 0
- Wheat plant response rating [2, 22]: 0
- Wheat plant response rating [2, 23]: 0
- Barnyardgrass plant response rating [3, 17]: 0
- Barnyardgrass plant response rating [3, 24]: 0
- Barnyardgrass plant response rating [3, 25]: 0
- Barnyardgrass plant response rating [3, 26]: 0
- Crabgrass plant response rating [4, 17]: 0
- Crabgrass plant response rating [4, 18]: 0
- Plant response rating, Crabgrass [4, 19]: 0
- Plant response rating, Crabgrass [4, 20]: 0
- Plant response rating, Crabgrass [4, 21]: 9
- Crabgrass plant response rating [4, 22]: 9
- Crabgrass plant response rating [4, 23]: 0
- Crabgrass plant response rating [4, 27]: 8
- Rice plant response rating [5, 17]: 0
- Rice plant response rating [5, 24]: 0
- Rice plant response rating [5, 25]: 0
- Rice plant response rating [5, 26]: 0
- Bedstraw plant response rating [6, 17]: 0
- Bedstraw plant response rating [6, 18]: 0
- Plant response rating, Bedstraw [6, 19]: 0
- Plant response rating, Bedstraw [6, 20]: 0
- Plant response rating, Bedstraw [6, 21]: 0
- Bedstraw plant response rating [6, 22]: 4
- Bedstraw plant response rating [6, 23]: 0
- Bedstraw plant response rating [6, 27]: 1
- Cocklebur plant response rating [7, 17]: 0
- Cocklebur plant response rating [7, 18]: 0
- Plant response rating, Cocklebur [7, 19]: 0
- Plant response rating, Cocklebur [7, 20]: 0
- Plant response rating, Cocklebur [7, 21]: 0
- Cocklebur plant response rating [7, 22]: 0
- Cocklebur plant response rating [7, 23]: 0
- Cocklebur plant response rating [7, 27]: 0
- Nutsedge plant response rating [8, 17]: 0
- Nutsedge plant response rating [8, 18]: 0
- Plant response rating, Nutsedge [8, 19]: 0
- Plant response rating, Nutsedge [8, 20]: 0
- Plant response rating, Nutsedge [8, 21]: 0
- Nutsedge plant response rating [8, 22]: 0
- Nutsedge plant response rating [8, 23]: 0
- Nutsedge plant response rating [8, 27]: 0
- Velvetleaf plant response rating [9, 17]: 0
- Velvetleaf plant response rating [9, 18]: 0
- Plant response rating, Velvetleaf [9, 19]: 0
- Plant response rating, Velvetleaf [9, 20]: 0
- Plant response rating, Velvetleaf [9, 21]: 0
- Velvetleaf plant response rating [9, 22]: 0
- Velvetleaf plant response rating [9, 23]: 0
- Morningglory plant response rating [10, 17]: 1
- Morningglory plant response rating [10, 18]: 4
- Plant response rating, Morningglory [10, 19]: 0
- Plant response rating, Morningglory [10, 20]: 0
- Plant response rating, Morningglory [10, 21]: 0
- Morningglory plant response rating [10, 22]: 0
- Morningglory plant response rating [10, 23]: 2
- Morningglory plant response rating [10, 27]: 6
- Wild oats plant response rating [11, 17]: 0
- Wild oats plant response rating [11, 18]: 0
- Plant response rating, Wild oats [11, 20]: 0
- Plant response rating, Wild oats [11, 21]: 0
- Wild oats plant response rating [11, 22]: 0
- Wild oats plant response rating [11, 23]: 0
- B. signalgrass plant response rating [12, 17]: 0
- B. signalgrass plant response rating [12, 18]: 0
- Plant response rating, B. signalgrass [12, 19]: 0
- Plant response rating, B. signalgrass [12, 20]: 0
- Plant response rating, B. signalgrass [12, 21]: 0
- B. signalgrass plant response rating [12, 22]: 2
- B. signalgrass plant response rating [12, 23]: 0
- B. signalgrass plant response rating [12, 27]: 0
- Redroot pigweed plant response rating [13, 17]: 0
- Redroot pigweed plant response rating [13, 18]: 3
- Plant response rating, Redroot pigweed [13, 19]: 0
- Plant response rating, Redroot pigweed [13, 20]: 0
- Plant response rating, Redroot pigweed [13, 21]: 0
- Redroot pigweed plant response rating [13, 22]: 6
- Redroot pigweed plant response rating [13, 23]: 2
- Redroot pigweed plant response rating [13, 27]: 6
- Giant foxtail plant response rating [14, 17]: 0
- Giant foxtail plant response rating [14, 18]: 0
- Plant response rating, Giant foxtail [14, 19]: 6
- Plant response rating, Giant foxtail [14, 20]: 9
- Plant response rating, Giant foxtail [14, 21]: 9
- Giant foxtail plant response rating [14, 22]: 9
- Giant foxtail plant response rating [14, 23]: 0
- Giant foxtail plant response rating [14, 27]: 3
- Ducksalad plant response rating [15, 17]: 0
- Ducksalad plant response rating [15, 24]: 0
- Ducksalad plant response rating [15, 25]: 0
- Ducksalad plant response rating [15, 26]: 0
- Blackgrass plant response rating [16, 17]: 0
- Blackgrass plant response rating [16, 18]: 0
- Plant response rating, Blackgrass [16, 19]: 0
- Plant response rating, Blackgrass [16, 20]: 0
- Plant response rating, Blackgrass [16, 21]: 0
- Blackgrass plant response rating [16, 22]: 2
- Blackgrass plant response rating [16, 23]: 0
- Blackgrass plant response rating [16, 27]: 3
